In patent US20200199127A1, “(HETERO)ARYLALKYLAMINO-PYRAZOLOPYRIDAZINE DERIVATIVES HAVING MULTIMODAL ACTIVITY AGAINST PAIN” (priority 2017, published 2020) one finds Ki data, which are given here for 28 compounds.

Broadly, the Ki is a measure of affinity in units of concentration, obtained from inhibition or displacement.

In assay [1] the target is Human α2δ-1 subunit of Cav2.2 calcium channel (Homo sapiens, UniProt P54289). As to the kind of experiment: Human α2δ-1 subunit of Cav2.2 calcium channel assay, [3H]-Gabapentin binding. The conditions noted are these: human α2δ-1 enriched membranes, 15 nM [3H]-Gabapentin; Ki as class symbol. As for the experimental part: Human α2δ-1 Subunit of Cav2.2 Calcium Channel Assay
Human α2δ-1 enriched membranes (2.5 μg) were incubated with 15 nM of radiolabeled [3H]-Gabapentin in assay buffer containing Hepes-KOH 10 mM, pH 7.4. NSB (non specific binding) was measured by adding 10 μM pregabalin. The binding of the test compound was measured at five different concentrations. After 60 min incubation at 27° C., binding reaction was terminated by filtering through Multiscreen GF/C (Millipore) presoaked in 0.5% polyethyleneimine in Vacuum Manifold Station, followed by 3 washes with ice-cold filtration buffer containing 50 mM Tris-HCl, pH 7.4. Filter plates were dried at 60° C. for 1 hour and 30 μl of scintillation cocktail were added to each well before radioactivity reading. Readings were performed in a Trilux 1450 Microbeta radioactive counter (Perkin Elmer).

For assay [2], the target named is Human norepinephrine transporter (NET) (Homo sapiens, UniProt P23975). As to the kind of experiment: Binding assay to human norepinephrine transporter (NET), [3H]-Nisoxetin. Particulars: human NET enriched membranes, 5 nM [3H]-Nisoxetin; Ki as class symbol. As for the experimental part: Binding Assay to Human Norepinephrine Transporter (NET).
Human norepinephrine transporter (NET) enriched membranes (5 μg) were incubated with 5 nM of radiolabeled [3H]-Nisoxetin in assay buffer containing 50 mM Tris-HCl, 120 mM NaCl, 5 mM KCl, pH 7.4.
NSB (non specific binding) was measured by adding 10 μM of desipramine. The binding of the test compound was measured at five different concentrations.. After 60 min incubation at 4° C., binding reaction was terminated by filtering through Multiscreen GF/C (Millipore) presoaked in 0.5% polyethyleneimine in Vacuum Manifold Station, followed by 3 washes with ice-cold filtration buffer containing 50 mM Tris-HCl, 0.9% NaCl, pH 7.4.
Filter plates were dried at 60° C. for 1 hour and 30 μl of scintillation cocktail were added to each well before radioactivity reading.

Chain of Human α2δ-1 subunit of Cav2.2 calcium channel (P54289 25-1103): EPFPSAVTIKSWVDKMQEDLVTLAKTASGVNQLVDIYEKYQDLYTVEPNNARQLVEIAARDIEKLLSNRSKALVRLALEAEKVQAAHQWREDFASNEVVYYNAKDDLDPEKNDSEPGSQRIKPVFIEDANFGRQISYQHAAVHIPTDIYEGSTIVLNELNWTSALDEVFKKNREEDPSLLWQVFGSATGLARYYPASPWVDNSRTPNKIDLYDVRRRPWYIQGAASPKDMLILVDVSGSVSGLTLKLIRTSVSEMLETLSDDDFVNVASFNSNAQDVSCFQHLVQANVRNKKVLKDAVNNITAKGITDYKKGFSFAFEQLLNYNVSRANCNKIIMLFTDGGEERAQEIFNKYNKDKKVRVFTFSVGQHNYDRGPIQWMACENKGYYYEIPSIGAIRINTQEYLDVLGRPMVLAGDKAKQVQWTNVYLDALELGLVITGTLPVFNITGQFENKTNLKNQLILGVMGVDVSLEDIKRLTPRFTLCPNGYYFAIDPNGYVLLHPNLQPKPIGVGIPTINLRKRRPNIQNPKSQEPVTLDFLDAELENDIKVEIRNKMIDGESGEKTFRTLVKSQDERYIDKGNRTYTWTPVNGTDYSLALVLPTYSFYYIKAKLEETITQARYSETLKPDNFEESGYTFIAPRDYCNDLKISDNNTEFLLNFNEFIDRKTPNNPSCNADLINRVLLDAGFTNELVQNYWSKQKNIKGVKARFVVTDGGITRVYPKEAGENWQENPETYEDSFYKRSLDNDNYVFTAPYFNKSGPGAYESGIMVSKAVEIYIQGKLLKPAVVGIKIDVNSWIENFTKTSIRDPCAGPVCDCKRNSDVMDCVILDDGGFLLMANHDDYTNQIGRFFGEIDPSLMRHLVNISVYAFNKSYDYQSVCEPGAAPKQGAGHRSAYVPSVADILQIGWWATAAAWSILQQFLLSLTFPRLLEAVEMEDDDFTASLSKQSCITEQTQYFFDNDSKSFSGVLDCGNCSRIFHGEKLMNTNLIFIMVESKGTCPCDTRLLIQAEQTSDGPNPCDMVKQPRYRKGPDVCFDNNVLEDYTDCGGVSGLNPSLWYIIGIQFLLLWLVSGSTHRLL
Chain of Human norepinephrine transporter (NET) (P23975 whole entry): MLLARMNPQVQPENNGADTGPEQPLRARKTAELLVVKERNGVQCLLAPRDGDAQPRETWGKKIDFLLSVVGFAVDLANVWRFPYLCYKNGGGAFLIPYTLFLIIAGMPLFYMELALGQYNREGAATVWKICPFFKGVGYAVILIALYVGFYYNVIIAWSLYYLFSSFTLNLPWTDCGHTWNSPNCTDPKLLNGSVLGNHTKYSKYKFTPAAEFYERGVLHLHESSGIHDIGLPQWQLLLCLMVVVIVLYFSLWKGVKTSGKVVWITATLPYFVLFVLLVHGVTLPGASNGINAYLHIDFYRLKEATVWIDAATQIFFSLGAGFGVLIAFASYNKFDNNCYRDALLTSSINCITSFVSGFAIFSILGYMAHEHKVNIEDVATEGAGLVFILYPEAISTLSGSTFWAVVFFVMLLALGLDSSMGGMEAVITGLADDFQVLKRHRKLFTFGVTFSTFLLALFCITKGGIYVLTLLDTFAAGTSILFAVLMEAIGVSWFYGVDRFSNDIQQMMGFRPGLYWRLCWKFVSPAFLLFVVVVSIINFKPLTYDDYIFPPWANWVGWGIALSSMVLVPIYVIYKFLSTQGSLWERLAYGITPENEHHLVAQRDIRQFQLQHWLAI

For the compound `CCOc1ccc(-n2nc3c(N(C)Cc4cccc(C)n4)nnc(C)c3c2C)c(F)c1` [Example 1, 2-(4-Ethoxy-2-fluorophenyl)-N,3,4-trimethyl-N-((6-methylpyridin-2-yl)methyl)-2H-pyrazolo[3,4-d]pyridazin-7-amine], the Ki in assay [1] was in the range of 100 to 500 nM; in assay [2] it was 500 to 1000 nM.

Compound `CCOc1ccc(-n2nc3c(N(C)CCC(O)c4ccccc4)nnc(C)c3c2C)c(F)c1` (stereo not drawn) [Example 2, 3-((2-(4-ethoxy-2-fluorophenyl)-3,4-dimethyl-2H-pyrazolo[3,4-d]pyridazin-7-yl)(methyl)amino)-1-phenylpropan-1-ol] registered a Ki in assay [2] of under 100 nM.

In the case of `CCOc1ccc(-n2nc3c(N(C)CCc4ccccc4)nnc(C)c3c2C)c(F)c1` [Example 3, 2-(4-ethoxy-2-fluorophenyl)-N,3,4-trimethyl-N-phenethyl-2H-pyrazolo[3,4-d]pyridazin-7-amine], the Ki in assay [1] and in assay [2] was 100 to 500 nM in each case.

As for `CCOc1ccc(-n2nc3c(N(C)CCCc4ccccc4)nnc(C)c3c2C)c(F)c1` [Example 4, 2-(4-ethoxy-2-fluorophenyl)-N,3,4-trimethyl-N-(3-phenylpropyl)-2H-pyrazolo[3,4-d]pyridazin-7-amine], the Ki in assay [1] and in assay [2] was 100 to 500 nM each time.

Turning to `CCOc1ccc(-n2nc3c(N(C)CC(O)c4ccccc4)nnc(C)c3c2C)c(F)c1` (stereo not drawn) [Example 5, 2-((2-(4-ethoxy-2-fluorophenyl)-3,4-dimethyl-2H-pyrazolo[3,4-d]pyridazin-7-yl)(methyl)amino)-1-phenylethanol], the Ki in assay [1] is 100 to 500 nM; in assay [2], over 1000 nM.

In assay [2], `CCOc1ccc(-n2nc3c(N(C)Cc4ccccc4)nnc(C)c3c2C)c(F)c1` [Example 6, N-benzyl-2-(4-ethoxy-2-fluorophenyl)-N,3,4-trimethyl-2H-pyrazolo[3,4-d]pyridazin-7-amine] came in with a Ki of under 100 nM.

Take `CCOc1ccc(-n2nc3c(NCCC(O)c4ccccc4)nnc(C)c3c2C)c(F)c1` (stereo not drawn) [Example 7, 3-((2-(4-ethoxy-2-fluorophenyl)-3,4-dimethyl-2H-pyrazolo[3,4-d]pyridazin-7-yl)amino)-1-phenylpropan-1-ol]: the Ki in assay [1] and in assay [2] was 100 to 500 nM throughout.

As for `CCOc1ccc(-n2nc3c(NC(CCO)c4ccccc4)nnc(C)c3c2C)c(F)c1` (stereo not drawn) [Example 8, 3-((2-(4-ethoxy-2-fluorophenyl)-3,4-dimethyl-2H-pyrazolo[3,4-d]pyridazin-7-yl)amino)-3-phenylpropan-1-ol], the Ki in assay [1] is 100 to 500 nM; in assay [2] it was over 1000 nM.

On to `CCOc1ccc(-n2nc3c(N(C)Cc4ccccn4)nnc(C)c3c2C)c(F)c1` [Example 9, 2-(4-ethoxy-2-fluorophenyl)-N,3,4-trimethyl-N-(pyridin-2-ylmethyl)-2H-pyrazolo[3,4-d]pyridazin-7-amine], for which the values for the Ki in assay [1] and in assay [2] were 100 to 500 nM and 500 to 1000 nM, respectively.

Take `CCOc1ccc(-n2nc3c(N(C)Cc4cccnc4)nnc(C)c3c2C)c(F)c1` [Example 10, 2-(4-ethoxy-2-fluorophenyl)-N,3,4-trimethyl-N-(pyridin-3-ylmethyl)-2H-pyrazolo[3,4-d]pyridazin-7-amine]: the figures for the Ki in assay [1] and in assay [2] were 100 to 500 nM and 500 to 1000 nM, respectively.

For the compound `CCOc1ccc(-n2nc3c(N(C)Cc4ccncc4)nnc(C)c3c2C)c(F)c1` [Example 11, 2-(4-ethoxy-2-fluorophenyl)-N,3,4-trimethyl-N-(pyridin-4-ylmethyl)-2H-pyrazolo[3,4-d]pyridazin-7-amine], the figures for the Ki in assay [1] and in assay [2] were 100 to 500 nM and over 1000 nM, respectively.

For `CCOc1ccc(-n2nc3c(NCC(CO)Cc4ccccc4)nnc(C)c3c2C)c(F)c1` (stereo not drawn) [Example 12, 2-benzyl-3-((2-(4-ethoxy-2-fluorophenyl)-3,4-dimethyl-2H-pyrazolo[3,4-d]pyridazin-7-yl)amino)propan-1-ol], the Ki in assay [1] and in assay [2] was 100 to 500 nM in each case.

Take `CCOc1ccc(-n2nc3c(NCc4ccccc4)nnc(C)c3c2C)c(F)c1` [Example 13, N-benzyl-2-(4-ethoxy-2-fluorophenyl)-3,4-dimethyl-2H-pyrazolo[3,4-d]pyridazin-7-amine]: the Ki in assay [1] is 100 to 500 nM; in assay [2] it was 500 to 1000 nM.

Regarding `CCOc1ccc(-n2nc3c(NCc4ccccn4)nnc(C)c3c2C)c(F)c1` [Example 14, 2-(4-ethoxy-2-fluorophenyl)-3,4-dimethyl-N-(pyridin-2-ylmethyl)-2H-pyrazolo[3,4-d]pyridazin-7-amine], the Ki is 100 to 500 nM in assay [1] and over 1000 nM in assay [2].

As for `CCOc1ccc(-n2nc3c(NCCc4ccccn4)nnc(C)c3c2C)c(F)c1` [Example 15, 2-(4-ethoxy-2-fluorophenyl)-3,4-dimethyl-N-(2-(pyridin-2-yl)ethyl)-2H-pyrazolo[3,4-d]pyridazin-7-amine], the Ki is 100 to 500 nM in assay [1] and over 1000 nM in assay [2].

`CCOc1ccc(-n2nc3c(N(C)CCc4ccccn4)nnc(C)c3c2C)c(F)c1` [Example 16, 2-(4-ethoxy-2-fluorophenyl)-N,3,4-trimethyl-N-(2-(pyridin-2-yl)ethyl)-2H-pyrazolo[3,4-d]pyridazin-7-amine]: the figures for the Ki in assay [1] and in assay [2] were 100 to 500 nM and over 1000 nM, respectively.

In the case of `CCOc1ccc(-n2nc3c(N(C)Cc4cccc(O)c4)nnc(C)c3c2C)c(F)c1` [Example 17, 3-(((2-(4-ethoxy-2-fluorophenyl)-3,4-dimethyl-2H-pyrazolo[3,4-d]pyridazin-7-yl)(methyl)amino)methyl)phenol], in assay [2], the Ki fell in the range of 100 to 500 nM.

For `CCOc1ccc(-n2nc3c(N(C)Cc4ccc(O)cc4)nnc(C)c3c2C)c(F)c1` [Example 18, 4-(((2-(4-ethoxy-2-fluorophenyl)-3,4-dimethyl-2H-pyrazolo[3,4-d]pyridazin-7-yl)(methyl)amino)methyl)phenol], in assay [2], the Ki was under 100 nM.

`CCOc1ccc(-n2nc3c(N(C)Cc4ccc(OC)cn4)nnc(C)c3c2C)c(F)c1` [Example 38, 2-(4-ethoxy-2-fluorophenyl)-N-((5-methoxypyridin-2-yl)methyl)-N,3,4-trimethyl-2H-pyrazolo[3,4-d]pyridazin-7-amine] returned a Ki in assay [2] of 100 to 500 nM.

`CCOc1ccc(-n2nc3c(N(C)Cc4ccccc4CO)nnc(C)c3c2C)c(F)c1` [Example 41, (2-(((2-(4-ethoxy-2-fluorophenyl)-3,4-dimethyl-2H-pyrazolo[3,4-d]pyridazin-7-yl)(methyl)amino)methyl)phenyl)meth-anol] came in with a Ki in assay [2] of 100 to 500 nM.

In assay [2], `Cc1nnc(N(C)Cc2ccccn2)c2nn(-c3ccc(Cl)cc3OC(F)(F)F)c(C)c12` [Example 42, 2-(4-chloro-2-(trifluoromethoxy)phenyl)-N,3,4-trimethyl-N-(pyridin-2-ylmethyl)-2H-pyrazolo[3,4-d]pyridazin-7-amine] showed a Ki of over 1000 nM.

As for `CCOc1ccc(-n2nc3c(N(C)Cc4cc(C)ccn4)nnc(C)c3c2C)c(F)c1` [Example 44, 2-(4-ethoxy-2-fluorophenyl)-N,3,4-trimethyl-N-((4-methylpyridin-2-yl)methyl)-2H-pyrazolo[3,4-d]pyridazin-7-amine], the Ki in assay [2] is 500 to 1000 nM.

For `CCOc1ccc(-n2nc3c(N(C)Cc4ccccn4)nnc(C)c3c2C)cc1` [Example 46, 2-(4-ethoxyphenyl)-N,3,4-trimethyl-N-(pyridin-2-ylmethyl)-2H-pyrazolo[3,4-d]pyridazin-7-amine], in assay [2], the Ki lay within 500 to 1000 nM.

Turning to `CCOc1ccc(-n2nc3c(N(C)CC[C@H](O)c4ccccc4)nnc(C)c3c2C)c(F)c1` [Example 49, (S)-3-((2-(4-Ethoxy-2-fluorophenyl)-3,4-dimethyl-2H-pyrazolo[3,4-d]pyridazin-7-yl)(methyl)amino)-1-phenylpropan-1-ol], the Ki in assay [2] is under 100 nM.

In turn, `CCOc1ccc(-n2nc3c(N(C)CC[C@@H](O)c4ccccc4)nnc(C)c3c2C)c(F)c1` [Example 50, (R)-3-((2-(4-ethoxy-2-fluorophenyl)-3,4-dimethyl-2H-pyrazolo[3,4-d]pyridazin-7-yl)(methyl)amino)-1-phenylpropan-1-ol] displayed a Ki in assay [2] of 100 to 500 nM.

`CCOc1ccc(-n2nc3c(NCC[C@@H](O)c4ccccc4)nnc(C)c3c2C)c(F)c1` [Example 51, (R)-3-((2-(4-Ethoxy-2-fluorophenyl)-3,4-dimethyl-2H-pyrazolo[3,4-d]pyridazin-7-yl)amino)-1-phenylpropan-1-ol] registered a Ki in assay [2] of over 1000 nM.

In the case of `CCOc1ccc(-n2nc3c(NCC[C@H](O)c4ccccc4)nnc(C)c3c2C)c(F)c1` [Example 52, (S)-3-((2-(4-ethoxy-2-fluorophenyl)-3,4-dimethyl-2H-pyrazolo[3,4-d]pyridazin-7-yl)amino)-1-phenylpropan-1-ol], in assay [2], the Ki lay in the range of 100 to 500 nM.

`CCOc1ccc(-n2nc3c(N(CCO)Cc4ccccc4)nnc(C)c3c2C)c(F)c1` [Example 55, 2-(benzyl(2-(4-ethoxy-2-fluorophenyl)-3,4-dimethyl-2H-pyrazolo[3,4-d]pyridazin-7-yl)amino)ethanol] had a Ki in assay [2] of 500 to 1000 nM.
